Measurements from publication PMC6009966, “A novel proton transfer salt of 2-amino-6-sulfamoylbenzothiazole and its metal complexes: the evaluation of their inhibition effects on human cytosolic carbonic anhydrases” (Journal of Enzyme Inhibition and Medicinal Chemistry, 2017).

Experiments:
Assay type in all cases: biochemical
hCA I [1] = biological target: T1, hCA I (Homo sapiens, UniProt P00915); test: CO2 hydratase activity inhibition of hCA I (pH-stat method)
Method: (§1) Erythrocytes were purified from human blood. The blood samples were centrifuged at 1500 rpm for 20 min, and plasma was removed. Later, red cells were washed with isotonic solution (0.9% NaCl), and the erythrocytes were hemolyzed with 1.5 volumes of ice-cold water. Cell membranes were removed by centrifugation at 4 °C, 20000 rpm for 30 min. The pH of hemolysate was adjusted to 8.7 with solid TRIS (tris(hydroxymethyl)aminomethane). […] After extensive washing with a solution of 25.0 mM TRIS-HCl/22.0 mM Na2SO4 (pH 8.7), the hCA I and hCA II isoenzymes were eluted with the solution of 1.0 M NaCl/25.0 mM Na2HPO4 (pH 6.3) and 0.1 M NaCH3COO/0.5 M NaClO4 (pH 5.6), respectively. For quantitative protein determination, the Bradford method was used with bovine serum albumin as standard. Also, the purity control of the isoenzymes was performed with SDS-PAGE after the purification.
(§2) The enzyme unit (EU) is the enzyme amount that reduces the non-enzymatic reaction time by 50%. The activity of an enzyme unit was calculated by using the equation ((t0−tc)/tc), where t0 and tc are times for pH change of the non-enzymatic and enzymatic reactions, respectively.
(§3) Regression analysis graphs were drawn by plotting the percent enzyme activity versus inhibitor concentration and IC50 values were calculated.

hCA I [2] = biological target: T1, hCA I; test: Esterase activity inhibition of hCA I (4-nitrophenylacetate, 348 nm)
Method: as §1
(§4) The enzymatic reaction, in a total volume of 3.0 mL, contained 1.4 mL of 0.05 M TRIS–SO4 buffer (pH 7.4), 1.0 mL of 3.0 mM 4-nitrophenylacetate, 0.5 mL H2O, and 0.1 mL enzyme solution. A reference measurement was obtained by preparing the same cuvette without enzyme solution.
as §3
(§5) Enzyme activity was also measured in the presence of the same substrate concentrations but in the absence of any inhibitor to determine the Vmax (Supplementary Figure S3).

hCA II [3] = biological target: T2, hCA II (Homo sapiens, UniProt P00918); test: CO2 hydratase activity inhibition of hCA II (pH-stat method)
Method: as §1, §2, §3

hCA II [4] = biological target: T2, hCA II; test: Esterase activity inhibition of hCA II (4-nitrophenylacetate, 348 nm)
Method: as §1, §4, §3, §5

[5] = CO2 hydratase activity, 0 °C, veronal buffer pH 8.15, mean ± standard error, three assays
[6] = 4-nitrophenylacetate, 25 °C, TRIS-SO4 pH 7.4, mean ± standard error, three assays
[7] = determined by esterase activity measurements, Lineweaver-Burk plot, mean ± standard error, three assays

T1 sequence (P00915 whole entry): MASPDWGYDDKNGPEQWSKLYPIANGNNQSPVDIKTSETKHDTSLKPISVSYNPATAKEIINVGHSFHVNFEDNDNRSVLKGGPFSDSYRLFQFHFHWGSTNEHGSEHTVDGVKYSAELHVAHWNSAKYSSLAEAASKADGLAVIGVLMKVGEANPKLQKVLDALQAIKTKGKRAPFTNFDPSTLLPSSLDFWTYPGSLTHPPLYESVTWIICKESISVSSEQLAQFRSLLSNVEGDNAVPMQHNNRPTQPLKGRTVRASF

| Compound | IC50 (hCA I [1]; [5]) | IC50 (hCA I [2]; [6]) | Ki (hCA I [2]; [7]) | IC50 (hCA II [3]; [5]) | IC50 (hCA II [4]; [6]) | Ki (hCA II [4]; [7]) | Inhibition of hydratase activity of hCA I (in words) (hCA I [1]) | Hydratase IC50 hCA I (hCA I [1]; [5]) | Inhibition of esterase activity of hCA I (in words) (hCA I [2]) | Esterase IC50 hCA I (hCA I [2]; [6]) | Ki hCA I (hCA I [2]; [7]) | Inhibition of hydratase activity of hCA II (in words) (hCA II [3]) | Hydratase IC50 hCA II (hCA II [3]; [5]) | Inhibition of esterase activity of hCA II (in words) (hCA II [4]) | Esterase IC50 hCA II (hCA II [4]; [6]) | Ki hCA II (hCA II [4]; [7]) | hCA II inhibited stronger than hCA I (esterase activity) (hCA II [4]; esterase activity, hCA II versus hCA I) |
| --- | --- | --- | --- | --- | --- | --- | --- | --- | --- | --- | --- | --- | --- | --- | --- | --- | --- |
| Nc1nc2ccc(S(N)(=O)=O)cc2s1.O=C(O)c1cccc(C(=O)O)n1 [Compound 1, (SMHABT)^+(HDPC)^−] | 4075 ± 18 nM | 258 ± 17 nM | 149 ± 17 nM | 1998 ± 9 nM | 133 ± 15 nM | 85 ± 19 nM |  |  |  |  |  |  |  |  |  |  |  |
| O=C(O)c1cccc(C(=O)O)n1 [Compound H2DPC, 2,6-pyridinedicarboxylic acid, reference compound] |  |  |  |  |  |  | have not inhibited | No inhibition | have not inhibited | No inhibition | No inhibition | have not inhibited | No inhibition | have not inhibited | No inhibition | No inhibition |  |
| Nc1nc2ccc(S(N)(=O)=O)cc2s1 [SMABT, 2-amino-6-sulfamoylbenzothiazole] | 6348 ± 12 nM | 567 ± 8 nM | 306 ± 4 nM | 3876 ± 14 nM | 322 ± 6 nM | 162 ± 10 nM |  |  |  |  |  |  |  |  |  |  |  |
| NC(=S)Nc1ccc(S(N)(=O)=O)cc1 [TBS, 4-thioureidobenzenesulfonamide, reference compound] | 7846 ± 5 nM | 499 ± 10 nM | 268 ± 7 nM | 4334 ± 21 nM | 234 ± 6 nM | 114 ± 3 nM |  |  |  |  |  |  |  |  |  |  |  |
| (SMHABT)2[Co(DPC)2].5H2O [Compound 3] | 1601 ± 8 nM | 66 ± 4 nM | 28 ± 2 nM | 703 ± 14 nM | 41 ± 3 nM | 13 ± 6 nM |  |  |  |  |  |  |  |  |  |  | 1.5 fold |
| (SMHABT)2[Ni(DPC)2].5H2O [Compound 4] | 397 ± 11 nM | 136 ± 3 nM | 43 ± 12 nM | 212 ± 6 nM | 54 ± 1 nM | 21 ± 4 nM |  |  |  |  |  |  |  |  |  |  |  |
| (SMHABT)[Fe(DPC)2].4H2O [Compound 2] | 2533 ± 23 nM | 409 ± 21 nM | 192 ± 19 nM | 1010 ± 13 nM | 189 ± 5 nM | 101 ± 5 nM |  |  |  |  |  |  |  |  |  |  |  |
